Experimental data: publication PMC8178808, “Exploring conformational preferences of proteins: ionic liquid effects on the energy landscape of avidin” (Chemical Science, 2020)

Biological target: T1, avidin (unmodified, native) (Gallus gallus, UniProt P02701)
T1 construct: gene AVD; natural secreted glycoprotein from egg white (mature chain, signal peptide removed), commercial lyophilised (Merck), untagged; homotetramer, one ligand site per monomer
Assay: UV-Vis titration at […] nm, non-linear regression (Hill-Langmuir)
Assay type: binding
Conditions: read-out: Unmodified avidin / K d (×10^-5 mol dm^-3)

T1 sequence (P02701 25-152): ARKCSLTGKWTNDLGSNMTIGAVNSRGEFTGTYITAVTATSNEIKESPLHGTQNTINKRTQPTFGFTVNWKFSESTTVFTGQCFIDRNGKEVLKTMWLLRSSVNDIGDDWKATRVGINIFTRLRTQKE

Kd: 11 µM
SMILES: O=C(O)c1ccccc1N=Nc1ccc(O)cc1 [HABA]
